Test results as given in patent US20210077567A1, “Targeted Angiotensin 1-7 Peptide Conjugates and Formation and Use Thereof” (IDAHO STATE UNIVERSITY, priority 2019, published 2021).
Marks after values point to notes of the source that are not given here.

What was measured:
[1] = tested on: FUUR1, MoJo, SYO1 and HSSY1 cancer cell lines; test: MTT viability/proliferation assay on cancer cell lines (Example 2); type: cell-based; conditions: all cell lines tested (FUUR1, MoJo, SYO1, HSSY1); multiple concentrations; FIG. 11
Excerpt: (§1) The viability of several different cancer cell lines including FUUR1, MoJo, SYO1, and the sarcoma cell line HSSY1 using the MTT assay across multiple concentrations and time points and compared with native Ang 1-7 as positive control and Ang II as negative control. The impact of Mas receptor activation by Ang peptide conjugate on gene expression of different components of the RAS, such as ACE1, ACE2, AT1R. Mas receptor was also studied using quantitative PCR using the different cancerous cell lines.

[2] = tested on: mRNA of RAS components (ACE, ACE2, AT1R, Mas receptor) in cancer cell line HSSY1; test: Quantitative PCR of RAS component gene expression; type: cell-based; conditions: FIG. 12
Excerpt: as §1

[3] = Stability of the conjugate in solution by HPLC-UV; type: physicochemical
Description: At 1, 3, 7, 10, 15, 30 days; 100 μL of the solutions were sampled and after adding stable Ang II as internal standard samples analyzed by HPLC-UV to monitor the stability of the conjugate over time. Table 3, below, provides the percent of the Ang peptide conjugate remaining in each sample after storage for 4 weeks.

[4] = Tissue distribution of radiolabeled peptides; type: in vivo; conditions: rats, i.v. or s.c.; FIG. 9
Description: (§2) Pharmacokinetic studies were conducted using rats for calculation of biological half-life and other pharmacokinetic parameters of the conjugates in comparison with native peptides. The tissue distribution of conjugates was conducted on main organs, such as bone (major target), heart, liver, kidney, lung, etc.

[5] = tested on: synovial sarcoma cell lines SYO1 and MoJo, renal carcinoma cell line FUUR1; test: In vitro cell viability / anti-proliferative activity on cancer cell lines (Example 1); type: cell-based; conditions: various concentrations, FIG. 6-8
Description: Upon confirmation of final chemical structure of the active conjugates, the anti-proliferative activity was tested using different cancer cell lines, including synovial sarcoma cell lines SYO1 and MoJo, and the renal carcinoma cell line FUUR1. Results comparing the percent viability of the tested cell lines upon incubation with AngII, Ang1-7, or the Ang peptide conjugate are provided in FIG. 6 (SYO1), FIG. 7 (MoJo) and FIG. 8 (FUUR1). The cell lines were incubated with concentrations of the tested materials at various concentrations, as shown.

[6] = Pharmacokinetic study, plasma half-life; type: in vivo, rats
Description: as §2

osteosarcoma tumors = test: Osteosarcoma tumor-bearing mouse model, tumor size; type: in vivo, mice; conditions: s.c. twice daily, equivalent dose of Ang 1-7 of 400 μg/kg, three weeks; FIG. 13
Description: The Ang peptide conjugate described in Example 1 was examined for inhibition of the RAS in an advanced form of osteosarcoma. For the in vivo study, a group of mice bearing osteosarcoma tumors was divided into three different groups and subcutaneously dosed twice daily with vehicle (PEG 400: normal Saline, 3:2), Ang 1-7, or Ang peptide conjugate (equivalent dose of Ang 1-7 of 400 μg/kg) for three weeks. The tumor size was measured three times a week. Tumor tissues were harvested and kept in appropriate medium in −80° C. for further analysis of different cancer biomarkers.

[7] = tested on: adjuvant-induced arthritis; test: Adjuvant-induced arthritis rat model (body weight, paw and joint diameters, plasma NO); type: in vivo, male Sprague Dawley rats; conditions: for inflammation and swelling of paws and joints (in words): preventive and treatment groups; for Mean body weight (SD); body weight gain (%) compared with day 1 / Mean body weight (SD); body weight gain (%) after 7 days of dosing: inflamed animals
Description: (§3) The Ang peptide conjugate described in Example 1 was examined for anti-inflammatory effect on adjuvant-induced arthritis in a rat animal model. On day one, for induction of adjuvant arthritis, male Sprague Dawley rats were injected at the tail base with 0.2 mL of 50 mg/mL Mycobacterium butyricum. Arthritic animals were divided into 4 groups and treated with saline, Ang II, Ang 1-7 or Ang peptide conjugate. A group of healthy rats received vehicle as control group. Preventive and treatment groups subcutaneously received 200 μg/kg equitant dose daily from day one for 3 weeks or after emergence of arthritis for 1 week, respectively. Animals were monitored daily for their body weight, paw and joint diameters. Animals were then euthanized, plasma/tissues were harvested and analyzed for plasma nitric oxide (NO), and the RAS components.

[8] = tested on: cardiac ACE2, ACE and Mas receptor expression; test: Cardiac RAS component expression in adjuvant-induced arthritis rats; type: in vivo; conditions: for cardiac ACE2/ACE ratio: preventive treatment, FIG. 16, 17; for cardiac Mas receptor expression: treatment after establishment of inflammation, FIG. 18, 19
Description: as §3, with “On” for “The Ang peptide conjugate described in Example 1 was examined for anti-inflammatory effect on adjuvant-induced arthritis in a rat animal model. On”

[9] = preventive arm, compared with day 1
[10] = treatment arm, after 7 days of dosing

## Ang peptide conjugate: Ang 1-7 peptide bonded at N-terminus to 27-mer mono-disperse PEG(maleimide)2 spacer conjugated with a thiol-bisphosphonate
[1]
  effect on cell proliferation: anti-proliferative effect was more pronounced
[2]
  ACE2 gene expression: significantly higher
  ACE gene expression: enhanced to some level
  AT1R gene expression: enhanced to some level
  Mas receptor gene expression: significantly higher
[3]; Acetate buffer (pH 5.5), 4 °C, 5 days
  percent of conjugate remaining: 98.4%
[3]; Acetate buffer (pH 5.5), 4 °C, 28 days
  percent of conjugate remaining: 98.0%
[3]; Acetate buffer (pH 5.5), 25 °C, 5 days
  percent of conjugate remaining: 94.3%
[3]; Acetate buffer (pH 5.5), 25 °C, 28 days
  percent of conjugate remaining: 93.3%
[3]; Acetate buffer (pH 5.5), −20 °C, 5 days
  percent of conjugate remaining: 99.8%
[3]; Acetate buffer (pH 5.5), −20 °C, 28 days
  percent of conjugate remaining: 99.5%
[3]; D. D. Water (pH 6.5), 4 °C, 5 days
  percent of conjugate remaining: 95.9%
[3]; D. D. Water (pH 6.5), 4 °C, 28 days
  percent of conjugate remaining: 92.4%
[3]; D. D. Water (pH 6.5), 25 °C, 5 days
  percent of conjugate remaining: 90.6%
[3]; D. D. Water (pH 6.5), 25 °C, 28 days
  percent of conjugate remaining: 64.0%
[3]; D. D. Water (pH 6.5), −20 °C, 5 days
  percent of conjugate remaining: 99.5%
[3]; D. D. Water (pH 6.5), −20 °C, 28 days
  percent of conjugate remaining: 99.1%
[3]; Phosphate buffer (pH 7.4), 4 °C, 5 days
  percent of conjugate remaining: 91.9%
[3]; Phosphate buffer (pH 7.4), 4 °C, 28 days
  percent of conjugate remaining: 79.2%
[3]; Phosphate buffer (pH 7.4), 25 °C, 5 days
  percent of conjugate remaining: 72.8%
[3]; Phosphate buffer (pH 7.4), 25 °C, 28 days
  percent of conjugate remaining: 22.6%
[3]; Phosphate buffer (pH 7.4), −20 °C, 5 days
  percent of conjugate remaining: 99.2%
[3]; Phosphate buffer (pH 7.4), −20 °C, 28 days
  percent of conjugate remaining: 98.9%
[4]
  tissue distribution compared with native peptides: higher affinity to thyroid and bone
[5]
  cell viability compared with native peptides: superior activity
[6]; after intravenous administration
  increase in plasma half-life as compared to the native peptide: 10 fold
[6]; after subcutaneous injection
  increase in half-life as compared to the native peptide: 15 fold
[6]; rats, FIG. 10
  half-life compared with native peptides: longer half-life
Osteosarcoma tumors
  tumor growth inhibition: potently inhibited tumor growth after 3-4 days
[7]
  inflammation and swelling of paws and joints (in words): reduced the inflammation and swelling to a comparable level with the control group
[7]; [9]
  Difference vs. Inf- Vehicle in body weight gain (%): 6.22%
[7]; preventive arm
  Mean body weight (SD); body weight gain (%) compared with day 1: 15.1 (12.0) %
[7]; preventive arm, 200 μg/kg s.c. daily from day one for 3 weeks, FIG. 14
  plasma level of NO: reduce the elevated plasma level of NO
[7]; [10]
  Difference vs. Inf- Vehicle in body weight gain (%): 3.0%
[7]; treatment arm
  Mean body weight (SD); body weight gain (%) after 7 days of dosing: 7.3 (4.3) * %
[7]; treatment arm, 200 μg/kg s.c. daily for 1 week after emergence of arthritis, FIG. 15
  plasma level of NO: reduce the elevated plasma level of NO
[8]
  cardiac ACE2/ACE ratio: restored this balance
  cardiac Mas receptor expression: restored this balance

## Angiotensin 1-7 (DRVYIHP) [Ang 1-7, reference compound]
[1]
  effect on cell proliferation: significant concentration dependent decrease on cell proliferation
[2]
  ACE2 gene expression: did not significantly change
  ACE gene expression: very large effect
  AT1R gene expression: did not significantly change
  Mas receptor gene expression: did not significantly change
Osteosarcoma tumors
  tumor growth inhibition: milder effect after 10 days
[7]
  inflammation and swelling of paws and joints (in words): reduced the inflammation and swelling to a comparable level with the control group
[7]; [9]
  Difference vs. Inf- Vehicle in body weight gain (%): 4.78%
[7]; preventive arm
  Mean body weight (SD); body weight gain (%) compared with day 1: 13.6 (8.8) %
[7]; [10]
  Difference vs. Inf- Vehicle in body weight gain (%): 5.7%
[7]; treatment arm
  Mean body weight (SD); body weight gain (%) after 7 days of dosing: 10.0 (4.8) * %
[8]
  cardiac ACE2/ACE ratio: restored this balance
  cardiac Mas receptor expression: restored this balance

## Angiotensin II (DRVYIHPF; Angiotensin-2; UniProt P01019 25-32, looked up) [Ang II, native Angiotensin II peptide, pro-inflammatory agent, negative control]
[1]
  effect on cell proliferation: remarkable proliferative effect
[7]
  inflammation and swelling of paws and joints (in words): made the situation worse
[7]; [9]
  Difference vs. Inf- Vehicle in body weight gain (%): 4.32%
[7]; preventive arm
  Mean body weight (SD); body weight gain (%) compared with day 1: 13.2 (3.1) %
